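48-hour exposure; five concentrations; linearly interpolated endpoints. At the GI50, growth is halved. TGI marks complete inhibition of growth.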
system: ACHN renal; experiment: growth of human tumour cells (NCI), 48 h

| SMILES | GI50 | TGI |
| --- | --- | --- |
| C[C@H]1CCC/C=C/[C@@H]2C[C@H](O)C[C@H]2[C@H](O)[C@@H](SCC(O)CO)CC(=O)O1 (some centres undefined) | 25.7 µM | 92.8 µM |
| N#Cc1ccc(OC(=O)Nc2ccc(Cl)c(Cl)c2)cc1 | 2.97 µM | 14.5 µM |
| CC[C@@]1(O)C(=O)OCc2c1cc1n(c2=O)Cc2c-1nc1cc(F)c(C)c3c1c2[C@@H](N)CC3 | < 0.01 µM | 0.026 µM |
| CC/C=C/C/C=C/C/C=C/C/C=C/C/C=C/C/C=C/CCC(=O)Nc1ccn([C@@H]2O[C@H](CO)[C@@H](O)C2(F)F)c(=O)n1 | < 0.0132 µM | 14.6 µM |
| C/C(=N\NC(=S)N1CC2CCC(CC2)C1)c1ccccn1 | 0.0347 µM | 1.52 µM |
| O=C(NCc1ccc(S(=O)(=O)c2cc(F)cc(F)c2)cc1)c1ccc2nccn2c1 | 21.1 µM | > 100 µM |
| NC(=S)N/N=C/c1cc(-c2cccc(N)c2)ccn1 | 1.06 µM | 16.1 µM |
| CO/N=C(/C)c1cccc(Nc2cc(-c3ccccc3)nc3ccc(OC)cc23)c1 | 14.1 µM | 31.5 µM |
| Cc1nn(C(=O)c2ccc(Cl)cc2)c2c1C(c1ccc(O)cc1)SC(N)=N2 (centres undefined) | – | > 10 µM |
| O=[N+]([O-])c1ccc(CSCc2ccc(Cl)cc2)cc1 | – | > 100 µM |

system: HCT-116 colon; experiment: growth of human tumour cells (NCI), 48 h

| SMILES | GI50 | TGI |
| --- | --- | --- |
| C[C@H]1CCC/C=C/[C@@H]2C[C@H](O)C[C@H]2[C@H](O)[C@@H](SCC(O)CO)CC(=O)O1 (some centres undefined) | 35.5 µM | > 100 µM |
| N#Cc1ccc(OC(=O)Nc2ccc(Cl)c(Cl)c2)cc1 | 3.4 µM | > 100 µM |
| CC[C@@]1(O)C(=O)OCc2c1cc1n(c2=O)Cc2c-1nc1cc(F)c(C)c3c1c2[C@@H](N)CC3 | < 0.01 µM | 12.3 µM |
| CC/C=C/C/C=C/C/C=C/C/C=C/C/C=C/C/C=C/CCC(=O)Nc1ccn([C@@H]2O[C@H](CO)[C@@H](O)C2(F)F)c(=O)n1 | 0.0873 µM | 29.8 µM |
| C/C(=N\NC(=S)N1CC2CCC(CC2)C1)c1ccccn1 | < 0.01 µM | 1.15 µM |
| O=C(NCc1ccc(S(=O)(=O)c2cc(F)cc(F)c2)cc1)c1ccc2nccn2c1 | < 0.01 µM | > 100 µM |
| NC(=S)N/N=C/c1cc(-c2cccc(N)c2)ccn1 | 1.99 µM | 27.3 µM |
| CO/N=C(/C)c1cccc(Nc2cc(-c3ccccc3)nc3ccc(OC)cc23)c1 | 4.25 µM | 18.4 µM |
| Cc1nn(C(=O)c2ccc(Cl)cc2)c2c1C(c1ccc(O)cc1)SC(N)=N2 (centres undefined) | – | > 10 µM |
| O=[N+]([O-])c1ccc(CSCc2ccc(Cl)cc2)cc1 | – | > 100 µM |

system: HOP-92 NSCLC; experiment: growth of human tumour cells (NCI), 48 h

| SMILES | GI50 | TGI |
| --- | --- | --- |
| C[C@H]1CCC/C=C/[C@@H]2C[C@H](O)C[C@H]2[C@H](O)[C@@H](SCC(O)CO)CC(=O)O1 (some centres undefined) | 37.7 µM | > 100 µM |
| N#Cc1ccc(OC(=O)Nc2ccc(Cl)c(Cl)c2)cc1 | 1.9 µM | 7.34 µM |
| CC[C@@]1(O)C(=O)OCc2c1cc1n(c2=O)Cc2c-1nc1cc(F)c(C)c3c1c2[C@@H](N)CC3 | < 0.01 µM | 0.307 µM |
| CC/C=C/C/C=C/C/C=C/C/C=C/C/C=C/C/C=C/CCC(=O)Nc1ccn([C@@H]2O[C@H](CO)[C@@H](O)C2(F)F)c(=O)n1 | 0.652 µM | 30.5 µM |
| C/C(=N\NC(=S)N1CC2CCC(CC2)C1)c1ccccn1 | 0.0255 µM | 0.793 µM |
| O=C(NCc1ccc(S(=O)(=O)c2cc(F)cc(F)c2)cc1)c1ccc2nccn2c1 | 22.5 µM | > 100 µM |
| NC(=S)N/N=C/c1cc(-c2cccc(N)c2)ccn1 | 0.314 µM | 40 µM |
| CO/N=C(/C)c1cccc(Nc2cc(-c3ccccc3)nc3ccc(OC)cc23)c1 | 2.55 µM | 8.55 µM |
| Cc1nn(C(=O)c2ccc(Cl)cc2)c2c1C(c1ccc(O)cc1)SC(N)=N2 (centres undefined) | – | > 10 µM |
| O=[N+]([O-])c1ccc(CSCc2ccc(Cl)cc2)cc1 | – | > 100 µM |

system: MALME-3M melanoma; experiment: growth of human tumour cells (NCI), 48 h

| SMILES | GI50 | TGI |
| --- | --- | --- |
| C[C@H]1CCC/C=C/[C@@H]2C[C@H](O)C[C@H]2[C@H](O)[C@@H](SCC(O)CO)CC(=O)O1 (some centres undefined) | > 100 µM | > 100 µM |
| N#Cc1ccc(OC(=O)Nc2ccc(Cl)c(Cl)c2)cc1 | 3.81 µM | 20.6 µM |
| CC[C@@]1(O)C(=O)OCc2c1cc1n(c2=O)Cc2c-1nc1cc(F)c(C)c3c1c2[C@@H](N)CC3 | < 0.014 µM | 0.281 µM |
| CC/C=C/C/C=C/C/C=C/C/C=C/C/C=C/C/C=C/CCC(=O)Nc1ccn([C@@H]2O[C@H](CO)[C@@H](O)C2(F)F)c(=O)n1 | 9.33 µM | 24.2 µM |
| C/C(=N\NC(=S)N1CC2CCC(CC2)C1)c1ccccn1 | 0.121 µM | 1.49 µM |
| O=C(NCc1ccc(S(=O)(=O)c2cc(F)cc(F)c2)cc1)c1ccc2nccn2c1 | > 41.6 µM | > 65 µM |
| NC(=S)N/N=C/c1cc(-c2cccc(N)c2)ccn1 | 1.31 µM | 24 µM |
| CO/N=C(/C)c1cccc(Nc2cc(-c3ccccc3)nc3ccc(OC)cc23)c1 | 2.45 µM | 7.78 µM |
| Cc1nn(C(=O)c2ccc(Cl)cc2)c2c1C(c1ccc(O)cc1)SC(N)=N2 (centres undefined) | – | > 10 µM |
| O=[N+]([O-])c1ccc(CSCc2ccc(Cl)cc2)cc1 | – | > 100 µM |

system: MOLT-4 leukemia; experiment: growth of human tumour cells (NCI), 48 h

| SMILES | GI50 | TGI |
| --- | --- | --- |
| C[C@H]1CCC/C=C/[C@@H]2C[C@H](O)C[C@H]2[C@H](O)[C@@H](SCC(O)CO)CC(=O)O1 (some centres undefined) | 27.1 µM | 84.3 µM |
| N#Cc1ccc(OC(=O)Nc2ccc(Cl)c(Cl)c2)cc1 | 3.71 µM | 27.8 µM |
| CC[C@@]1(O)C(=O)OCc2c1cc1n(c2=O)Cc2c-1nc1cc(F)c(C)c3c1c2[C@@H](N)CC3 | < 0.01 µM | > 100 µM |
| CC/C=C/C/C=C/C/C=C/C/C=C/C/C=C/C/C=C/CCC(=O)Nc1ccn([C@@H]2O[C@H](CO)[C@@H](O)C2(F)F)c(=O)n1 | 0.0802 µM | 3.55 µM |
| C/C(=N\NC(=S)N1CC2CCC(CC2)C1)c1ccccn1 | 0.0598 µM | 3.74 µM |
| O=C(NCc1ccc(S(=O)(=O)c2cc(F)cc(F)c2)cc1)c1ccc2nccn2c1 | > 27.2 µM | > 100 µM |
| NC(=S)N/N=C/c1cc(-c2cccc(N)c2)ccn1 | 0.588 µM | > 100 µM |
| CO/N=C(/C)c1cccc(Nc2cc(-c3ccccc3)nc3ccc(OC)cc23)c1 | 3.05 µM | > 100 µM |
| Cc1nn(C(=O)c2ccc(Cl)cc2)c2c1C(c1ccc(O)cc1)SC(N)=N2 (centres undefined) | – | > 10 µM |
